# Test results reported in PubChem BioAssay AID1918948 (Molecular Pharmacology Branch, DTP, NCI, 2023).
# Test system: K-562 leukemia growth, % test/control
# Assay: Anticancer human tumor K-562 cell line growth inhibition;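 also: spheroids exposed to compounds for 7 days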;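 as to viability, T/C: 100% = DMSO vehicle wells and lower values mean fewer viable cells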
# Details: spheroids with HUVEC and MSC; for IC50: curve of first compound; for viability, T/C: stronger effect = lower value
# Outline: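 Multicellular complex spheroids of tumor cells with human endothelial cells (HUVEC) and mesenchymal stem cells; the LSD1 inhibitor iadademstat was combined with standard-of-care or investigational agents. Top concentration at or near clinical Cmax, half-log dilutions; final DMSO ≤0.25%.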
smiles,measurement,setting,value
O=C(C=Cn1cnc(-c2cc(C(F)(F)F)cc(C(F)(F)F)c2)n1)NNc1cnccn1 + NC1CCC(NC2CC2c2ccccc2)CC1,IC50,second compound 0.1 µM,0.0598 µM
same,IC50,second compound 0.316 µM,0.0589 µM
same,IC50,second compound 1 µM,0.061 µM
same,IC50,second compound 3.16 µM,0.0606 µM
same,IC50,second compound 10 µM,0.0431 µM
same,"viability, T/C","second compound 0.1 µM, first compound 0.00316 µM",104%
same,"viability, T/C","second compound 0.1 µM, first compound 0.01 µM",92.3%
same,"viability, T/C","second compound 0.1 µM, first compound 0.0316 µM",69.5%
same,"viability, T/C","second compound 0.1 µM, first compound 0.1 µM",36.6%
same,"viability, T/C","second compound 0.1 µM, first compound 0.316 µM",4.19%
same,"viability, T/C","second compound 0.1 µM, first compound 1 µM",1.72%
same,"viability, T/C","second compound 0.316 µM, first compound 0.00316 µM",107%
same,"viability, T/C","second compound 0.316 µM, first compound 0.01 µM",92%
same,"viability, T/C","second compound 0.316 µM, first compound 0.0316 µM",69.2%
same,"viability, T/C","second compound 0.316 µM, first compound 0.1 µM",36.5%
same,"viability, T/C","second compound 0.316 µM, first compound 0.316 µM",4.44%
same,"viability, T/C","second compound 0.316 µM, first compound 1 µM",1.67%
same,"viability, T/C","second compound 1 µM, first compound 0.00316 µM",107%
same,"viability, T/C","second compound 1 µM, first compound 0.01 µM",91.5%
same,"viability, T/C","second compound 1 µM, first compound 0.0316 µM",70%
same,"viability, T/C","second compound 1 µM, first compound 0.1 µM",38.2%
same,"viability, T/C","second compound 1 µM, first compound 0.316 µM",4.8%
same,"viability, T/C","second compound 1 µM, first compound 1 µM",2.29%
same,"viability, T/C","second compound 3.16 µM, first compound 0.00316 µM",103%
same,"viability, T/C","second compound 3.16 µM, first compound 0.01 µM",92.5%
same,"viability, T/C","second compound 3.16 µM, first compound 0.0316 µM",67.8%
same,"viability, T/C","second compound 3.16 µM, first compound 0.1 µM",38.8%
same,"viability, T/C","second compound 3.16 µM, first compound 0.316 µM",4.71%
same,"viability, T/C","second compound 3.16 µM, first compound 1 µM",1.78%
same,"viability, T/C","second compound 10 µM, first compound 0.00316 µM",88.8%
same,"viability, T/C","second compound 10 µM, first compound 0.01 µM",75.1%
same,"viability, T/C","second compound 10 µM, first compound 0.0316 µM",57.1%
same,"viability, T/C","second compound 10 µM, first compound 0.1 µM",33.7%
same,"viability, T/C","second compound 10 µM, first compound 0.316 µM",3.55%
same,"viability, T/C","second compound 10 µM, first compound 1 µM",2.29%
